“And” between values parts separate entries of the source, which are not always exact repeats. Equal entries are not always repeated.
Tests used:
Petunia FMT (E20) [1] = assay: Methyltransferase assay (14C-SAM, TLC) of crude homogenate of E. coli containing pCGP3086; assay type: biochemical, Petunia hybrida; design: key to Petunidin (product on TLC) / Malvidin (product on TLC): yes = detection of product on TLC; no = no reaction observed as determined by absence of product
Protocol: 10 mLs of LB containing ampicillin at 100 μg/mL and kanamycin at 25 μg/mL. (LB/Amp100+Kan25) were inoculated with a single colony of pCGP3086 or pQE30 in M15 (pREP4) cells. […] IPTG was then added to a final concentration of 1 mM and the culture was further incubated at 30° C. with shaking for 8 hours. The cells were pelleted by centrifugation at 3500 rpm for 10 minutes at 4° C. The pellet was resuspended in 1 mL of 0.1 M NaPi, pH 7.5, 4 mM MgCl2. […] The mixture was then sonicated for two bursts of 10 seconds at output 2-3 and then incubated on ice for 30 minutes. The cell debris was pelleted by centrifugation at 14,000 rpm for 20 minutes at 4° C. The supernatant was passed through a NAP-10 column (Pharmacia) and 1.5 mL of the sample collected in 0.1 M NaPi, pH 7.5, 4 mM MgCl2. […] (1983), supra. Methyltransferase assays were set up according to Table 10 in a total reaction volume of 50 μL. […] The assay reactions were incubated at 30° C. for 30 minutes. Fifty microlitres of a chloroform mix (CHCl3:methanol/1% HCl, 2:1) was added and the mixture was then vortexed to stop the reactions. […] The tube was then placed in a boiling waterbath for 30 minutes and the contents subsequently desiccated under vacuum.

Torenia FMT (TFMT) = assay: HPLC assay of methyltransferase activity, E. coli extract containing pCGP3090; assay type: biochemical, Torenia hybrida
Protocol: (§1) The assay reactions were incubated at 30° C. for 30 minutes. Fifty microlitres of a chloroform mix (CHCl3:methanol/1% HCl, 2:1) was added and the mixture was then vortexed to stop the reactions. The phases were separated by centrifugation at 13,000 rpm for 5 minutes and 50 μL of the upper phase was transferred into a clean tube and the contents subsequently hydrolysed by the addition of 12.5 μL of 10M HCl. The tube was then placed in a boiling waterbath for 30 minutes and the contents subsequently desiccated under vacuum. The residue was resuspended in 2-3 μL of methanol/1% HCl and spotted onto a TLC plate alongside standard samples of petunidin, malvidin and delphinidin. The anthocyanidins were separated in a Forestal system (HOAc:water:HCl; 30:10:3) (Markham, Techniques of flavonoid identification, Academic Press, London, 1982) and the TLC was exposed to an autoradiographic film (Kodak) for 16 hours at −70° C.
(§2) Anthocyanidins in the reaction mixture were analysed by HPLC via gradient elution using gradient conditions of 50% B to 60% B over 10 minutes, then 60% B for 10 minutes and finally 60% B to 100% B over 5 minutes where solvent A consisted of TFA:H2O (5:995) and solvent B consisted of acetonitrile:TFA:H2O (500:5:495). An Asahi Pac ODP-50 cartridge column (250 mm×4.6 mm ID) was used for the reversed phase chromatographic separations. […].
(§3) The enzyme activities of the peptides encoded by Petunia and Torenia FMT cDNA clones in pCGP3086 and pCGP3090, respectively were further assessed using the substrates delphinidin 3-glucoside and delphinidin 3-rutinoside and delphinidin 3,5-diglucoside under assay conditions as previously described (Table 15, Example 9) except that the ^14C-labelled SAM was replaced with non radioactive SAM at 2 mg/mL and the substrates (delphinidin 3-glucoside and delphinidin 3-rutinoside and delphinidin 3,5-diglucoside) at 2 mg/mL.

Petunia FMT (E20) [2] = assay: HPLC assay of methyltransferase activity, E. coli extract containing pCGP3086; assay type: biochemical, Petunia hybrida
Protocol: as §1, §2, §3

rose petals = assay: Incubation of excised rose petal segments with precursors or end products; assay type: cell-based, Rosa hybrida; details: 1-2 mg/mL, around 16 hours
Protocol: To determine whether rose petals contained the enzymes necessary for conversion of dihydromyricetin to delphinidin, precursor-feeding experiments with dihydromyricetin were initiated.
Petal segments of a selection of commercial cultivars of roses (Toplesse, Lambada, Medeo, Pamela, Sonia, Oceana, Mystique) were placed in solutions of 1-2 mg/mL dihydromyrectin or water only and incubated for around 16 hours in a growth room at a temperature of around 23° C. Pink/purple colors were observed near the cut edges of the petals (Table 6).
Petal segments of roses were placed in solutions of 1-2 mg/mL malvidin 3,5-diglucoside, 1-2 mg/mL dihydromyrectin or water only and incubated for around 16 hours in a growth room at a temperature of around 23° C. The production of colors in the purple range were observed near the cut edges of the petals upon incubation with dihydromyrectin or malvidin 3,5-diglucoside (Table 7).

[3] = Reconstruction experiments: anthocyanins added to petal juice of Medeo roses; assay type: physicochemical, Rosa hybrida
Protocol: The rose cultivar Medeo generally produces cream-colored to pale apricot flowers (RHSCC 158C to 159A). […] The estimated vacuolar pH of Medeo petals is around 4.6. The petal juice of Medeo roses was extracted by grinding one petal with 50 μL of water using a mortar and pestle. The petal juice was collected and mixed with 10-20 μL of 1-2 mg/g delphinidin 3-glucoside, delphinidin 3,5-diglucoside and malvidin 3,5-diglucoside. The colors observed were described according to the Royal Horticultural Society Color Charts (RHSCC) (The Royal Horticultural Society, London) (Table 8).

[4] = pCGP3086 crude homogenate + 14C-SAM (Table 16, positive control)
[5] = pCGP3086 crude homogenate + 14C-SAM, 30° C., 30 minutes (Table 11)
[6] = pCGP3090 (TFMT), percentage of total anthocyanidins, duplicate a/b
[7] = pCGP3090, substrate 2 mg/mL, SAM 2 mg/mL, duplicate a/b
[8] = pCGP3086 (PFMT), percentage of total anthocyanidins, duplicate a/b
[9] = pCGP3086, substrate 2 mg/mL, SAM 2 mg/mL, duplicate a/b

Compound: C[C@@H]1O[C@@H](OC[C@H]2O[C@@H](Oc3cc4c(O)cc(O)cc4[o+]c3-c3cc(O)c(O)c(O)c3)[C@H](O)[C@@H](O)[C@@H]2O)[C@H](O)[C@H](O)[C@H]1O [D3R, delphinidin 3-rutinoside]
- Petunidin and malvidin, the methylated derivatives of delphinidin, in assay reactions (Petunia FMT (E20) [1]; crude homogenates from pCGP3086 cells, 14C-SAM): detected
- Malvidin (product on TLC) (Petunia FMT (E20) [1]; [4]): yes
- Petunidin (product on TLC) (Petunia FMT (E20) [1]; [4]): yes
- Malvidin (product on TLC) (Petunia FMT (E20) [1]; [5]): yes
- Petunidin (product on TLC) (Petunia FMT (E20) [1]; [5]): yes
- product of flavonoid methyltransferase activity with the substrate (Torenia FMT (TFMT); Torenia FMT in pCGP3090, to a lesser degree petunidin): predominantly malvidin
- Predominant FMT Activity (Torenia FMT (TFMT); pCGP3090): 3′5′FMT
- % of anthocyanidin detected cya (Torenia FMT (TFMT); [6]): 0.0%
- % of anthocyanidin detected del (Torenia FMT (TFMT); [6]): 13.2% and 14.6%
- % of anthocyanidin detected mal (Torenia FMT (TFMT); [6]): 80.9% and 79.1%
- % of anthocyanidin detected peo (Torenia FMT (TFMT); [6]): 1.9%
- % of anthocyanidin detected pet (Torenia FMT (TFMT); [6]): 4.0% and 4.3%
- Anthocyanidins (mg/g) Cya (Torenia FMT (TFMT); [7]): 0 mg/g
- Anthocyanidins (mg/g) Del (Torenia FMT (TFMT); [7]): 2.5 mg/g and 2.8 mg/g
- Anthocyanidins (mg/g) Mal (Torenia FMT (TFMT); [7]): 15.6 mg/g and 15.1 mg/g
- Anthocyanidins (mg/g) Peo (Torenia FMT (TFMT); [7]): 0.4 mg/g
- Anthocyanidins (mg/g) Pet (Torenia FMT (TFMT); [7]): 0.8 mg/g
- product of flavonoid methyltransferase activity with the substrate (Petunia FMT (E20) [2]; Petunia FMT (E20) in pCGP3086, to a lesser degree malvidin): predominantly petunidin
- Predominant FMT Activity (Petunia FMT (E20) [2]; pCGP3086): 3′FMT
- % of anthocyanidin detected cya (Petunia FMT (E20) [2]; [8]): 2.5%
- % of anthocyanidin detected del (Petunia FMT (E20) [2]; [8]): 21.2% and 21.7%
- % of anthocyanidin detected mal (Petunia FMT (E20) [2]; [8]): 16.6% and 17.4%
- % of anthocyanidin detected peo (Petunia FMT (E20) [2]; [8]): 1.2% and 1.1%
- % of anthocyanidin detected pet (Petunia FMT (E20) [2]; [8]): 58.5% and 57.4%
- Anthocyanidins (mg/g) Cya (Petunia FMT (E20) [2]; [9]): 0.4 mg/g and 0.5 mg/g
- Anthocyanidins (mg/g) Del (Petunia FMT (E20) [2]; [9]): 3.7 mg/g and 4.5 mg/g
- Anthocyanidins (mg/g) Mal (Petunia FMT (E20) [2]; [9]): 2.9 mg/g and 3.6 mg/g
- Anthocyanidins (mg/g) Peo (Petunia FMT (E20) [2]; [9]): 0.2 mg/g
- Anthocyanidins (mg/g) Pet (Petunia FMT (E20) [2]; [9]): 10.2 mg/g and 11.9 mg/g

Compound: COc1cc(-c2[o+]c3cc(O)cc(O[C@@H]4O[C@H](CO)[C@@H](O)[C@H](O)[C@H]4O)c3cc2O[C@@H]2O[C@H](CO)[C@@H](O)[C@H](O)[C@H]2O)cc(OC)c1O [M35G, malvidin 3,5-diglucoside]
- Color at cut edge after incubation with malvidin (rose petals; rose cultivar Lambada (orange petal)): violet/purple
- Color at cut edge after incubation with malvidin (rose petals; rose cultivar Toplesse (pink petal)): violet/purple
- COLOR ([3]; pH 4.6): violet-blue
- COLOR ([3]; pH 4.9): violet-blue
- RHSCC# ([3]; pH 4.9): 90A
